Laboratory results reported in ChEMBL document CHEMBL6153079, “Discovery of noncovalent diaminopyrimidine-based Inhibitors for glioblastoma via a dual FAK/DNA targeting strategy” (Eur J Med Chem, 2025).
pIC50: −log10 of the molar value. The source made the active and inactive calls. No cut-off for these calls is given here.

Tests used:
[1] = system: U-251; assay: Antiproliferative activity against human U-251 assessed as cell viability incubated for 48 hrs by MTT assay; type: functional, cell-based; conditions: U-251, 48 h
[2] = system: U-87 MG; assay: Antiproliferative activity against human U-87 MG assessed as cell viability incubated for 48 hrs by MTT assay; type: functional, cell-based, U-87MG ATCC
[3] = target: T1, Focal adhesion kinase 1 (Homo sapiens, UniProt Q05397); assay: Inhibition of FAK (unknown origin) at 50 nM relative to control
Target sequence in this assay (Q05397 2-1052 limits assumed): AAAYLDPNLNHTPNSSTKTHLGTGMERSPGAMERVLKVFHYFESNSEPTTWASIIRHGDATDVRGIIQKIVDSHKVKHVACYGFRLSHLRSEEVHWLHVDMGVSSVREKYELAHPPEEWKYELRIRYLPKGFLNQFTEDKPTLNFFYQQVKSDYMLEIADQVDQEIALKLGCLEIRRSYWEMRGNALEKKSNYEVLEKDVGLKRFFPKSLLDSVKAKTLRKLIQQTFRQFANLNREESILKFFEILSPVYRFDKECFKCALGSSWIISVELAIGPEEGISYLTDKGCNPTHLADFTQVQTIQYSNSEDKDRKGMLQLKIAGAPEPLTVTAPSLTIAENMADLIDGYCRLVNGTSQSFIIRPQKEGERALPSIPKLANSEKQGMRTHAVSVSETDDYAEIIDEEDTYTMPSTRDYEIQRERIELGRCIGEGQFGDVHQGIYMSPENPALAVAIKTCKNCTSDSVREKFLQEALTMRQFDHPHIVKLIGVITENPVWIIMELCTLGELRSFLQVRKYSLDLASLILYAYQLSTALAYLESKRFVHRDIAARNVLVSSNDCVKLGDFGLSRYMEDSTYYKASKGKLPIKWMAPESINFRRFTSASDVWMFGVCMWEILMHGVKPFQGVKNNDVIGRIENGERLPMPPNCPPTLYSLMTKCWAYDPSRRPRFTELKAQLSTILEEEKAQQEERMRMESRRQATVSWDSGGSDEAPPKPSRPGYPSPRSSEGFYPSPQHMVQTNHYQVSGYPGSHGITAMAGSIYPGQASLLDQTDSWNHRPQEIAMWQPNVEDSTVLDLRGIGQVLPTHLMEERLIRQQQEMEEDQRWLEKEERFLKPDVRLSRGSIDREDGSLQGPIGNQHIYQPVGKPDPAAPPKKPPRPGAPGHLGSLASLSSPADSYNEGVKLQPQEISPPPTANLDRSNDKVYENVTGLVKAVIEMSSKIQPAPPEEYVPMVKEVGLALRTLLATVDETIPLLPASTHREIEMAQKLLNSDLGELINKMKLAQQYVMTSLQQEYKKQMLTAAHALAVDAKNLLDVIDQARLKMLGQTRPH

[4] = target: T1, Focal adhesion kinase 1; assay: Inhibition of FAK (unknown origin) at 10 nM relative to control
Target sequence in this assay (Q05397 2-1052 limits assumed): as above

[5] = target: T1, Focal adhesion kinase 1; assay: Inhibition of FAK (unknown origin) preincubated for 10 mins followed by ATP and substrate addition and measured after 50 mins by HTRF analysis
Target sequence in this assay (Q05397 whole entry): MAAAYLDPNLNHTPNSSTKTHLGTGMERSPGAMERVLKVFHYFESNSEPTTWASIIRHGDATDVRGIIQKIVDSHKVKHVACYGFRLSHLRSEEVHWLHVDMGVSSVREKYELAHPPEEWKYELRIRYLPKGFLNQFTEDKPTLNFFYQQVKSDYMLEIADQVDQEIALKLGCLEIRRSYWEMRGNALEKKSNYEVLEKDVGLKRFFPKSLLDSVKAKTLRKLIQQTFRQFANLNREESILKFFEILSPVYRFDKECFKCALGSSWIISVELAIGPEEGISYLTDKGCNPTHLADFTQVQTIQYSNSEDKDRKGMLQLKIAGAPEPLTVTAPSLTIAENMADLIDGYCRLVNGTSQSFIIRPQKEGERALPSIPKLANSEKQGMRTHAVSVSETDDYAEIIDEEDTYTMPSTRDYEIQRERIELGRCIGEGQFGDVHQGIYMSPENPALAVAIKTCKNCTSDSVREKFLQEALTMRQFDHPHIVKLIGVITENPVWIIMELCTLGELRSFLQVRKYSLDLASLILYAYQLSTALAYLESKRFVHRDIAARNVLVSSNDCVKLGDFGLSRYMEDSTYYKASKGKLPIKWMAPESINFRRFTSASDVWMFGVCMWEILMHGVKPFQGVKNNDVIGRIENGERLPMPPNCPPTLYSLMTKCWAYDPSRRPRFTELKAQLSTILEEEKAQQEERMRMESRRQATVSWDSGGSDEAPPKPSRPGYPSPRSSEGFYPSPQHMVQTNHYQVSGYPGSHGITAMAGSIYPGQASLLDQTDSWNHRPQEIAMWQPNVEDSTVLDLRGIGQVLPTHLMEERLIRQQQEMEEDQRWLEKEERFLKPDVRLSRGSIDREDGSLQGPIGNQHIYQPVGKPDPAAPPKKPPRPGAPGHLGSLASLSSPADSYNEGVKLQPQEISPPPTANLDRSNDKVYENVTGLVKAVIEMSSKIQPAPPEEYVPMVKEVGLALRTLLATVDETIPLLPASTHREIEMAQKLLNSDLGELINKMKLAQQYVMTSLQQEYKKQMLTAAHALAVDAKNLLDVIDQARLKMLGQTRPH

[6] = Cytotoxicity against human LO2 assessed as cell viability incubated for 48 hrs by MTT assay; type: toxicity, cell-based, L02; conditions: LO2 cells
[7] = Cytotoxicity against human 2BS assessed as cell viability incubated for 48 hrs by MTT assay; type: toxicity, cell-based; conditions: 2BS cells
[8] = Distribution coefficient, logD of compound in n-Octanol/water at pH 7.4; type: physicochemical
[9] = Selectivity ratio of IC50 for cytotoxicity against human LO2 assessed as cell viability to IC50 for antiproliferative activity against human U-251 assessed as cell viability; type: toxicity; conditions: LO2 cells versus U-251 cells, read-out: Ratio IC50
[10] = Selectivity ratio of IC50 for cytotoxicity against human LO2 assessed as cell viability to IC50 for antiproliferative activity against human U-87 MG assessed as cell viability; type: toxicity; conditions: LO2 cells versus U-87 MG cells, read-out: Ratio IC50
[11] = system: U-87 MG; assay: Induction of DNA damage in human U-87 MG cells assessed as comet tail moment at 0.1 to 2 uM incubated for 2.5 to 3 hrs by comet assay; type: functional; conditions: U-87MG ATCC, time 2.5-3 hrs
[12] = Effective permeability of compound at pH 7.4 incubated for 16 hrs by LCMS analysis; type: ADME; conditions: pH 7.4, 16 h

SMILES	pIC50 [1]	pIC50 [2]	inhibition [3]	inhibition [4]	pIC50 [5]	IC50 at 48 h [6]	IC50 at 48 h [7]	logD [8]	selectivity ratio [9]	selectivity ratio [10]	Activity [11]	Peff [12]
CNC(=O)c1ccccc1Nc1nc(Nc2ccc(N3CCN(CCOC(=O)CCCc4ccc(N(CCCl)CCCl)cc4)CC3)cc2)ncc1Br	7.09	7.52	94.2%	68.4%	–	–	–	–	–	–	–	–
CNC(=O)c1ccccc1Nc1nc(Nc2ccc(N3CCN(CCOC(=O)CCCc4ccc(N(CCCl)CCCl)cc4)CC3)cc2)ncc1[N+](=O)[O-]	6.07	6.22	75.4%	36.5%	–	–	–	–	–	–	–	–
CNC(=O)c1ccccc1Nc1nc(Nc2ccc(N3CCN(CCOC(=O)CCCc4ccc(N(CCCl)CCCl)cc4)CC3)cc2)ncc1C	6.77	7.38	97.5%	65.8%	–	–	–	–	–	–	–	–
CNC(=O)c1ccccc1Nc1nc(Nc2ccc(N3CCN(C(=O)CCCc4ccc(N(CCCl)CCCl)cc4)CC3)cc2)ncc1Cl	5.43	6.00	74.2%	55.4%	–	–	–	–	–	–	–	–
CNC(=O)c1ccccc1Nc1nc(Nc2ccc(N3CCN(CCO)CC3)cc2)ncc1Cl	6.71	7.21	77.9%	67.7%	–	–	–	–	–	–	–	–
CNC(=O)c1ccccc1Nc1nc(Nc2ccc(N3CCNCC3)cc2)ncc1Cl	7.10	7.44	78.6%	67.9%	–	–	–	–	–	–	–	–
CNC(=O)c1ccccc1Nc1nc(Nc2ccc(N3CCN(C)CC3)cc2)ncc1Cl	7.19	7.77	80.2%	76.4%	8.49	801 nM	11600 nM	3.1	> 40	> 40	inactive	–
CNC(=O)c1ccccc1Nc1nc(Nc2ccc(N3CCN(C(=O)c4ccc(N(CCCl)CCCl)cc4)CC3)cc2OC)ncc1Cl	< 4.30	< 4.30	64.6%	26.2%	–	–	–	–	–	–	–	–
CNC(=O)c1ccccc1Nc1nc(Nc2ccc(C3CCN(C(=O)c4ccc(N(CCCl)CCCl)cc4)CC3)cc2)ncc1Cl	< 4.30	4.40	58.6%	34%	–	–	–	–	–	–	–	–
CNC(=O)c1ccccc1Nc1nc(Nc2ccc(N3CCN(CCOC(=O)c4ccc(N(CCCl)CCCl)cc4)CC3)cc2)ncc1Cl	5.92	6.41	78.5%	51.9%	–	–	–	–	–	–	–	–
CNC(=O)c1ccccc1Nc1nc(Nc2ccc(C3CCN(C(=O)CCCc4ccc(N(CCCl)CCCl)cc4)CC3)cc2)ncc1Cl	4.74	5.85	67.5%	56.4%	–	–	–	–	–	–	–	–
O=C(O)CCCc1ccc(N(CCCl)CCCl)cc1 [CHLORAMBUCIL]	< 4.30	< 4.30	8.54%	2.77%	–	–	–	–	–	–	–	–
CNC(=O)c1ccccc1Nc1nc(Nc2ccc(N3CCN(C(=O)c4ccc(N(CCCl)CCCl)cc4)CC3)cc2)ncc1Cl	5.20	5.75	77.5%	55.8%	–	–	–	–	–	–	–	–
CNC(=O)c1ccccc1Nc1nc(Nc2ccc(N3CCN(C(=O)CCCc4ccc(N(CCCl)CCCl)cc4)CC3)cc2OC)ncc1Cl	< 4.30	4.74	67.3%	32.2%	–	–	–	–	–	–	–	–
CNC(=O)c1ccccc1Nc1nc(Nc2ccc(N3CCN(CCOC(=O)CCCc4ccc(N(CCCl)CCCl)cc4)CC3)cc2)ncc1Cl	6.31	7.02	94.5%	79.8%	–	–	–	–	–	–	–	–
CNC(=O)c1ccccc1Nc1nc(Nc2ccc(N3CCN(CCOC(=O)c4ccc(N(CCCl)CCCl)cc4)CC3)cc2)ncc1C(F)(F)F	7.51	7.57	96.4%	81.3%	8.37	1210 nM	24100 nM	5.34	> 40	> 40	–	0.001 10^-6 cm/s
